What all share (format): biochemical
One assay addresses Mtb20S (Mycobacterium tuberculosis, UniProt P9WHT9). Particulars: for inhibitory potency against Mtb20S (in words): qualitative statement, comparison as stated in the sentence.
The next assay deals with human i-20S β5i (Homo sapiens, UniProt P20618+P28062). The experiment in a line: Human immunoproteasome inhibition assay. The settings on record: for inhibitory potency against human i-20S (in words): qualitative statement, comparison as stated in the sentence.
The target in a further assay is human c-20S β5c (Homo sapiens, UniProt P20618+P28074). The settings on record: qualitative statement; comparison as stated in the sentence.

Chain of Mtb20S (P9WHT9 58-291): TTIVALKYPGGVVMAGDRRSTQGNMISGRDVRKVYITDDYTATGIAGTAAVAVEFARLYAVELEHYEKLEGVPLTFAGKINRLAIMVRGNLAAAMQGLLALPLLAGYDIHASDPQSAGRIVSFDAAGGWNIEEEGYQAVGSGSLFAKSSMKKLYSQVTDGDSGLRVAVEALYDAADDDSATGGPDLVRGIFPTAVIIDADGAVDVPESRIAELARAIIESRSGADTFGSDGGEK

`Cc1cc(C(=O)N[C@@H](CC(=O)N2CCCC[C@@H]2C)C(=O)N[C@@H](C)C(=O)NCc2ccc(F)cc2F)no1` [A85]: the “inhibitory potency against Mtb20S (in words)” value against Mtb20S was “maintaining potency”. The “selectivity for Mtb20S over i-20S β5i” value on human i-20S β5i was 4 fold.
Take `Cc1cc(C(=O)N[C@@H](CC(=O)N2CCC[C@@H]2c2ccccc2)C(=O)N[C@@H](C)C(=O)NCc2ccc(F)cc2F)no1` [A86]: at Mtb20S (relative to A85), the “improvement in IC50 values against Mtb20S” value came out at 2.4 fold.
For the compound `Cc1cc(C(=O)N[C@@H](CC(=O)N2CCC[C@@H]2c2ccccc2)C(=O)N[C@@H](C)C(=O)NCc2c(F)cccc2F)no1` [A119], the “inhibitory potency against Mtb20S (in words)” value against Mtb20S is reported as “maintained”. The “inhibitory potency against human i-20S (in words)” value against human i-20S β5i is listed as “reduced”.
As for `COc1ccccc1CNC(=O)[C@H](C)NC(=O)[C@H](CC(=O)N1CCC[C@@H]1c1ccccc1)NC(=O)c1cc(C)on1` [A120], the “inhibitory potency against Mtb20S (in words)” value at Mtb20S is on record as “reduced”. In addition, on human c-20S β5c, the “inhibitory potency against human c-20S (in words)” value is reported as “reduced”. In addition, the “inhibitory potency against human i-20S (in words)” value against human i-20S β5i was “reduced”.
For `Cc1cc(C(=O)N[C@@H](CC(=O)N2CCCC[C@@H]2C)C(=O)N[C@@H](C)c2ncc(-c3ccccc3)[nH]2)no1` [B1], at Mtb20S, the “inhibitory potency against Mtb20S (in words)” value is recorded as “modest inhibitory activity”.
In the case of `Cc1cc(C(=O)N[C@@H](CC(=O)N2CCC[C@@H]2c2ccccc2)C(=O)N[C@@H](C)c2ncc(-c3ccccc3F)[nH]2)no1` [B6], on Mtb20S, the “selectivity for Mtb20S over both c-20S and i-20S (in words)” value is “markedly selective”; the “inhibitory potency against Mtb20S (in words)” value is on record as “highly potent”.
For `Cc1cc(C(=O)N[C@@H](CC(=O)N2CCC[C@@H]2c2ccccc2)C(=O)N[C@@H](C)c2ncc(-c3ccccc3)[nH]2)no1` [B36] the same measures were “markedly selective” and “highly potent”.
For `Cc1cc(C(=O)N[C@@H](CC(=O)N2CCC[C@@H]2c2ccccc2)C(=O)N[C@@H](C)c2ncc(-c3ccc(F)cc3F)[nH]2)no1` [B37], in that order: “markedly selective” and “highly potent”.

For the origin of these results see paper PMC7091493 (Journal of medicinal chemistry, 2019).
